31 compounds from patent US8969363B2, “Heterocyclic compounds and uses thereof” (Infinity Pharmaceuticals, Inc., priority 2011, dated 2015) can be followed below.

In one assay the target is T1, PI3Kα (Homo sapiens, UniProt P42336).
T1 construct: purchased Millipore Corporation 14-602-K
As to the kind of experiment: PI3 Kinase HTRF assay, PI3Kα. The class given is biochemical. As to conditions: 10 μM PIP2, 10 μM ATP; 'Greater than 10 μM' and 'Greater than 1 μM to 10 μM'; read-out: PI3K α IC50. The source says:
(§1) A PI3-Kinase HTRF® assay kit (cat No. 33-016) purchased from Millipore Corporation was used to screen compounds provided herein. This assay used specific, high affinity binding of the GRP1 pleckstrin homology (PH) domain to PIP3, the product of a Class 1A or 1B PI3 Kinase acting on its physiological substrate PIP2. During the detection phase of the assay, a complex was generated between the GST-tagged PH domain and biotinylated short chain PIP3. The biotinylated PIP3 and the GST-tagged PH domain recruited fluorophores (Streptavidin-Allophycocyanin and Europium-labeled anti-GST respectively) to form the fluorescence resonance energy transfer (FRET) architecture, generating a stable time-resolved FRET signal. The FRET complex was disrupted in a competitive manner by non-biotinylated PIP3, a product formed in the PI3 Kinase assay.
(§2) PI3 Kinase α, β, γ and δ activity was assayed using the PI3 Kinase HTRF® assay kit (catalogue No. 33-016) purchased from Millipore Corporation. Purified recombinant PI3Kα (catalogue No. 14-602-K), PI3Kβ (catalogue No. 14-603-K), PI3Kγ (catalogue No. 14-558-K) and PI3Kδ (catalogue No. 14-604-K) were obtained from Millipore Corporation. Purified recombinant PI3K enzyme was used to catalyze the phosphorylation of phosphatidylinositol 4,5-bisphosphate (PIP2 at 10 μM) to phosphatidylinositol 3,4,5-trisphosphate (PIP3) in the presence of 10 μM ATP. The assay was carried out in 384-well format and detected using a Perkin Elmer EnVision Xcite Multilabel Reader. Emission ratios were converted into percent inhibitions and imported into GraphPad Prism software. The concentration necessary to achieve inhibition of enzyme activity by 50% (IC50) was calculated using concentrations ranging from 20 μM to 0.1 nM (12-point curve). IC50 values were determined using a nonlinear regression model available in GraphPad Prism 5. […]
In general terms: In TR-FRET formats the signal depends on donor and acceptor labels being close together.

A further assay addresses PI3Kβ. As to the kind of experiment: PI3 Kinase HTRF assay, PI3Kβ. The class given is biochemical, human. The following applies: 10 μM PIP2, 10 μM ATP; 'Greater than 10 μM' and 'Greater than 1 μM to 10 μM'; read-out: PI3K β IC50.
Text: as §1
as §2, with “Purified recombinant PI3Kα (catalogue No. 14-602-K), PI3Kβ (catalogue No. 14-603-K), PI3Kγ (catalogue No. 14-558-K) and PI3Kδ (catalogue No. 14-604-K) were obtained from Millipore Corporation.” left out, “The concentration necessary to achieve inhibition of enzyme activity by 50% (IC50) was calculated using concentrations ranging from 20 μM to 0.1 nM (12-point curve).” left out

Another assay deals with Balb/c splenic B cells. As to the kind of experiment: B cell activation and proliferation assay (Alamar Blue). The class given is cell-based. As to conditions: Mus musculus, 'Less than 100 nM'. As for the experimental part: The ability of one or more subject compounds to inhibit B cell activation and proliferation is determined according to standard procedures known in the art. For example, an in vitro cellular proliferation assay is established that measures the metabolic activity of live cells. The assay is performed in a 96 well microtiter plate using Alamar Blue reduction. Balb/c splenic B cells are purified over a Ficoll-Paque™ PLUS gradient followed by magnetic cell separation using a MACS B cell Isolation Kit (Miletenyi). Cells are plated in 90 μl at 50,000 cells/well in B Cell Media (RPMI+10% FBS+Penn/Strep+50 μM bME+5 mM HEPES). A compound provided herein is diluted in B Cell Media and added in a 10 μl volume. Plates are incubated for 30 min at 37° C. and 5% CO2 (0.2% DMSO final concentration). A 50 μl B cell stimulation cocktail is then added containing either 10 μg/ml LPS or 5 μg/ml F(ab′)2 Donkey anti-mouse […] plus 2 ng/ml recombinant mouse IL4 in B Cell Media. Plates are incubated for 72 hours at 37° C. and 5% CO2. A volume of 15 μL of Alamar Blue reagent is added to each well and plates are incubated for 5 hours at 37° C. and 5% CO2. Alamar Blue fluoresce is read at 560Ex/590Em, and IC50 or EC50 values are calculated using GraphPad Prism 5.

PI3Kβ, sequence (Q8BTI9 whole entry): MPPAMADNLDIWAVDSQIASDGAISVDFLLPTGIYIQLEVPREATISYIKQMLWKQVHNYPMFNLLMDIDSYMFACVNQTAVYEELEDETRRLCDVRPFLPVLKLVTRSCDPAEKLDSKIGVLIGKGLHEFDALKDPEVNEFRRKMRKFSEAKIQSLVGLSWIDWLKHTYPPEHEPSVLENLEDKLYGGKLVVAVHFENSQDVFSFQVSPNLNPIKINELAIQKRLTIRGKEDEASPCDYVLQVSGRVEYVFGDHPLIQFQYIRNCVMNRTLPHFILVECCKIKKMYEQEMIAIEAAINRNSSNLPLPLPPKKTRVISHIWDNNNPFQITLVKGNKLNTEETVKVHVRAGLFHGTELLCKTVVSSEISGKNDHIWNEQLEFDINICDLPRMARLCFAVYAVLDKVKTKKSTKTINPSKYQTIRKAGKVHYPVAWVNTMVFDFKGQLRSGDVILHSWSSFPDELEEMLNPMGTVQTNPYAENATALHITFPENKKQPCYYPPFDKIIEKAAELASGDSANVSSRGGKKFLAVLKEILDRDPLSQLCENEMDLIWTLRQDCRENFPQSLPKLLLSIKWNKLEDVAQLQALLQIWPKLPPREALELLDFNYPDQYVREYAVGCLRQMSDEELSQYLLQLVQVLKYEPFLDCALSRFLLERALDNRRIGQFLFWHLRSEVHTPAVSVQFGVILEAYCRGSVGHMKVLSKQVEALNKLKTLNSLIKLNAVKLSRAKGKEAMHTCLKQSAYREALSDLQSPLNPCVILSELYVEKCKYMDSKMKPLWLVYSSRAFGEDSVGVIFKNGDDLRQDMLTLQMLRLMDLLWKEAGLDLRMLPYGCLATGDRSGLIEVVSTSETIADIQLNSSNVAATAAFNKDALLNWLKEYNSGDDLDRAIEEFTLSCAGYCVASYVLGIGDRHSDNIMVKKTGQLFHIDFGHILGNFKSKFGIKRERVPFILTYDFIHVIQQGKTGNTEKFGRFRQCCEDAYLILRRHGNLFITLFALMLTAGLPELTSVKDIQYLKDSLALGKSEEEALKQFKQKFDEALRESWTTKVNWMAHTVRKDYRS
T1 sequence (P42336 whole entry): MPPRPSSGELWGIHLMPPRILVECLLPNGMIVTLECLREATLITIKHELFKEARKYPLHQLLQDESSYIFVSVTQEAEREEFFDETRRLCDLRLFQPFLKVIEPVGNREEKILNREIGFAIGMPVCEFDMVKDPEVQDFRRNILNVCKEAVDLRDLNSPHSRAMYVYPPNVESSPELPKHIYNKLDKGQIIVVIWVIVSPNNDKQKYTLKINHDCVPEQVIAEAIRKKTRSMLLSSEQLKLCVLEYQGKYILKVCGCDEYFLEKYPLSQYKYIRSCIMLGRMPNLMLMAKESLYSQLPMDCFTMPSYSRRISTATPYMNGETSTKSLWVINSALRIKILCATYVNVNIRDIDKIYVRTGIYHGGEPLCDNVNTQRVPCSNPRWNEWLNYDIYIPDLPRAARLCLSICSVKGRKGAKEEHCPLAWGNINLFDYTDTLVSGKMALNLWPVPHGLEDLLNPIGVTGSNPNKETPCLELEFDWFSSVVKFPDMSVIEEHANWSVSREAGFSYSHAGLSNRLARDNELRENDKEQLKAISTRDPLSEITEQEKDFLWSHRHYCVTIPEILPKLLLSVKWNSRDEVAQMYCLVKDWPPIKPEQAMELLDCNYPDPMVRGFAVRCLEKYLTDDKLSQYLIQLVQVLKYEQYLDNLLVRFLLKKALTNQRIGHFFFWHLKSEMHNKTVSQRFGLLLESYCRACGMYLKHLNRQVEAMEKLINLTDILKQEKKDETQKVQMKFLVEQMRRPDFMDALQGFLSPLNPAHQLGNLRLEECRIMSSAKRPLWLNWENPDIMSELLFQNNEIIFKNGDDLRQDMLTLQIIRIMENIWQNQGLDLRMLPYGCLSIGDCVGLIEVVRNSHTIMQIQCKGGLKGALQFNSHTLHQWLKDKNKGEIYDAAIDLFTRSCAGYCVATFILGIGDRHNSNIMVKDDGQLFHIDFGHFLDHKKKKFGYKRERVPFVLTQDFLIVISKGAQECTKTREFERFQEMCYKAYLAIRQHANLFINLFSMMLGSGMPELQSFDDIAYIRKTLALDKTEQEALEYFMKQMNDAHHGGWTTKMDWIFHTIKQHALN
T1 sequence (P27986 whole entry partner): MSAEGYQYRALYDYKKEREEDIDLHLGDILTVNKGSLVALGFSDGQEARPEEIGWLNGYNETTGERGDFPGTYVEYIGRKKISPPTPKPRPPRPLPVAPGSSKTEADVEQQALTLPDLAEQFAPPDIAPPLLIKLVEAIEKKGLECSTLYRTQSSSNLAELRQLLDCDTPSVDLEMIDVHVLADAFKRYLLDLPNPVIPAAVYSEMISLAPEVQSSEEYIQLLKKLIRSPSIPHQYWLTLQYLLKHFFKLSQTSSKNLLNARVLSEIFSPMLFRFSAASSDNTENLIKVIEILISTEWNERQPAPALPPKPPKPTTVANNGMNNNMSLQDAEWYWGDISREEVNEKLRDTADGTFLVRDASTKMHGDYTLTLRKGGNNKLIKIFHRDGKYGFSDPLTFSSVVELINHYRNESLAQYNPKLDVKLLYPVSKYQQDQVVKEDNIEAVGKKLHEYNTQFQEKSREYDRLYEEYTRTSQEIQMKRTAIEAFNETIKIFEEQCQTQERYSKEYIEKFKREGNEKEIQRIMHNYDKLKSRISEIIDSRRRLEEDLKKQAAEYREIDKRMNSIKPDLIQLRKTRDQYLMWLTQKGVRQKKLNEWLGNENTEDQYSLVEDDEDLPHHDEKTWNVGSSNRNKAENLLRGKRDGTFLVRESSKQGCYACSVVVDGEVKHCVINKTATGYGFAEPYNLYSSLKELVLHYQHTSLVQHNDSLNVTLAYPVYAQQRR

Broadly, the IC50 is the concentration that inhibits the measured activity by half. For orientation: EC50 means the concentration that produces a half-maximal response. Low readings indicate an effect from little substance, high ones a need for much substance. Take `C[C@H](Nc1ncnc2cccnc12)c1cc2c(F)cccc2c(=O)n1-c1ccccc1` [Compound I-4]: the IC50 on PI3Kα and on PI3Kβ was 1 to 10 µM throughout. In addition, the EC50 in the assay on Balb/c splenic B cells is below 100 nM.

As for `C[C@H](Nc1ncnc2cccnc12)c1cc2ccc(F)cc2c(=O)n1-c1ccccc1` [Compound I-18], the IC50 at PI3Kα and at PI3Kβ was 1 to 10 µM each time. In addition, in the assay on Balb/c splenic B cells, the EC50 is below 100 nM.

Regarding `C[C@H](Nc1ncnc2cccnc12)c1cc2cccc(-c3cnn(C)c3)c2c(=O)n1C1CC1` [Compound I-24], the IC50 at PI3Kα and on PI3Kβ was 1 to 10 µM each time. In the assay with Balb/c splenic B cells, this compound returned an EC50 below 100 nM.

For `C[C@H](Nc1ncnc2cccnc12)c1cc2cccc(-c3cnn(C)c3)c2c(=O)n1-c1cccc(F)c1` [Compound I-25], the results for the IC50 at PI3Kα and on PI3Kβ were 1 to 10 µM and above 10 µM, respectively. The EC50 in the assay on Balb/c splenic B cells was below 100 nM.

As for `C[C@H](Nc1nc(N)nc2cccnc12)c1cc2cccc(-c3cnn(C)c3)c2c(=O)n1-c1cccc(F)c1` [Compound I-38], the IC50 is 1 to 10 µM at PI3Kα and above 10 µM at PI3Kβ. For the same compound, the EC50 in the assay on Balb/c splenic B cells is below 100 nM.

As for `C[C@H](Nc1ncnc2cccnc12)c1cc2cccc(-c3ccc(N)nc3)c2c(=O)n1-c1ccccc1` [Compound I-43], the IC50 at PI3Kα is 1 to 10 µM; at PI3Kβ, above 10 µM. The compound further displayed an EC50 in the assay with Balb/c splenic B cells below 100 nM.

For `COc1ccc(-c2cccc3cc([C@H](C)Nc4ncnc5cccnc45)n(-c4ccccc4)c(=O)c23)cn1` [Compound I-48], the values for the IC50 at PI3Kα and at PI3Kβ were 1 to 10 µM and above 10 µM, respectively. For the same compound, the EC50 in the assay with Balb/c splenic B cells was below 100 nM.

Consider `C[C@H](Nc1ccnc2cccnc12)c1cc2cccc(Cl)c2c(=O)n1-c1cccc(F)c1` [Compound I-50], for which the IC50 on PI3Kα and on PI3Kβ was 1 to 10 µM in each case. In the assay with Balb/c splenic B cells, the EC50 was below 100 nM.

Consider `C[C@H](Nc1ccnc2cccnc12)c1cc2cccc(-c3cnn(C)c3)c2c(=O)n1-c1ccccc1` [Compound I-51], for which the IC50 at PI3Kα and on PI3Kβ was 1 to 10 µM each time. Further, in the assay on Balb/c splenic B cells, the EC50 was below 100 nM.

Take `Cc1cccc2cc([C@H](C)Nc3ncnc4cccnc34)n(-c3cccc(F)c3)c(=O)c12` [Compound I-70]: the IC50 on PI3Kα and on PI3Kβ was 1 to 10 µM throughout. The compound also came in with an EC50 in the assay on Balb/c splenic B cells below 100 nM.

Consider `COc1ncc(-c2cccc3cc([C@H](C)Nc4ncnc5cccnc45)n(-c4cccc(F)c4)c(=O)c23)cn1` [Compound I-73], for which the IC50 at PI3Kα is 1 to 10 µM; on PI3Kβ it was above 10 µM. Moreover, the 50% effective concentration (EC50) with Balb/c splenic B cells is below 100 nM.

For the compound `C[C@H](Nc1nc(N)nc2cccnc12)c1cc2cccc(-c3cncnc3)c2c(=O)n1-c1ccccc1` [Compound I-74], the IC50 at PI3Kα and at PI3Kβ was 1 to 10 µM throughout. In addition, the EC50 in the assay with Balb/c splenic B cells was below 100 nM.

As for `C[C@H](Nc1nc(N)nc2cccnc12)c1cc2cccc(-c3ccnnc3)c2c(=O)n1-c1ccccc1` [Compound I-79], the concentration for half-maximal inhibition (IC50) on PI3Kα and on PI3Kβ was 1 to 10 µM throughout. The same compound had an EC50 in the assay on Balb/c splenic B cells below 100 nM.

With `C[C@H](Nc1nc(N)nc2cccnc12)c1cc2cccc(-c3ccnnc3)c2c(=O)n1-c1cccc(F)c1` [Compound I-80], the results for the IC50 on PI3Kα and at PI3Kβ were 1 to 10 µM and above 10 µM, respectively. Also, in the assay with Balb/c splenic B cells, the EC50 is below 100 nM.

Take `Cc1ncc(-c2cccc3cc([C@H](C)Nc4nc(N)nc5cccnc45)n(-c4cccc(F)c4)c(=O)c23)cn1` [Compound I-84]: the IC50 on PI3Kα was 1 to 10 µM; at PI3Kβ it was above 10 µM. Moreover, in the assay with Balb/c splenic B cells, the EC50 is below 100 nM.

With `CNc1nc(N[C@@H](C)c2cc3cccc(Cl)c3c(=O)n2-c2ccccc2)c2ncccc2n1` [Compound I-96], the IC50 at PI3Kα and on PI3Kβ was 1 to 10 µM throughout. Besides, the EC50 in the assay with Balb/c splenic B cells is below 100 nM.

Consider `C[C@H](Nc1ccnc2ccnn12)c1cc2cccc(Cl)c2c(=O)n1-c1cccc(F)c1` [II-4], for which the IC50 at PI3Kα and at PI3Kβ was 1 to 10 µM throughout. This compound also came in with an EC50 with Balb/c splenic B cells below 100 nM.

As to `C[C@H](Nc1ccnc2ccnn12)c1cc2cccc(-c3cnn(C)c3)c2c(=O)n1-c1ccccc1` [II-5, (S)-8-(1-methyl-1H-pyrazol-4-yl)-2-phenyl-3-(1-(pyrazolo[1,5-a]pyrimidin-7-ylamino)ethyl)isoquinolin-1(2H)-one], the IC50 on PI3Kα and at PI3Kβ was 1 to 10 µM in each case. In addition, the EC50 with Balb/c splenic B cells is below 100 nM.

Regarding `C[C@H](Nc1ccnc2ccnn12)c1cc2cccc(-c3cnn(C)c3)c2c(=O)n1-c1cccc(F)c1` [II-9], the IC50 is 1 to 10 µM at PI3Kα and above 10 µM on PI3Kβ. In addition, in the assay on Balb/c splenic B cells, the EC50 was below 100 nM.

As for `C[C@H](Nc1ccnn2ccnc12)c1cc2cccc(-c3cnn(C)c3)c2c(=O)n1-c1cccc(F)c1` [II-17], the results for the IC50 at PI3Kα and at PI3Kβ were 1 to 10 µM and above 10 µM, respectively. The compound further came in with an EC50 in the assay with Balb/c splenic B cells below 100 nM.

In the case of `C[C@H](Nc1ccnn2ccnc12)c1cc2cccc(-c3cnn(C)c3)c2c(=O)n1-c1ccccc1` [II-18], the 50% inhibitory concentration (IC50) on PI3Kα and at PI3Kβ was 1 to 10 µM each time. In the assay with Balb/c splenic B cells, this compound showed an EC50 below 100 nM.

In the case of `C[C@H](Nc1ccnn2ccnc12)c1cc2cccc(-c3cnn(C)c3)c2c(=O)n1C1CC1` [II-45], the IC50 on PI3Kα and on PI3Kβ was 1 to 10 µM in each case. For the same compound, in the assay on Balb/c splenic B cells, the EC50 was below 100 nM.

`C[C@H](Nc1ccnn2ccnc12)c1cc2cccc(C(F)(F)F)c2c(=O)n1-c1ccccc1` [III-8, (S)-3-(1-(imidazo[1,2-b]pyridazin-8-ylamino)ethyl)-2-phenyl-8-(trifluoromethyl)isoquinolin-1(2H)-one]: the IC50 on PI3Kα lay within 1 to 10 µM. In the assay on Balb/c splenic B cells, this compound gave an EC50 below 100 nM.

Consider `C[C@H](Nc1ncnc2scnc12)c1cc2cccc(C(F)(F)F)c2c(=O)n1-c1cccc(F)c1` [III-10], for which the IC50 on PI3Kα was in the range of 1 to 10 µM. Further, in the assay on Balb/c splenic B cells, the EC50 is below 100 nM.

As for `C[C@H](Nc1ncnn2ccnc12)c1cc2cccc(C(F)(F)F)c2c(=O)n1-c1ccccc1` [III-27], at PI3Kα, the IC50 was 1 to 10 µM. The same compound had an EC50 in the assay with Balb/c splenic B cells below 100 nM.

Regarding `C[C@H](Nc1nc(N)nc2[nH]cnc12)c1cc2cccc(C(F)(F)F)c2c(=O)n1-c1cccc(F)c1` [III-30], the IC50 on PI3Kα lay in the range of 1 to 10 µM. In the assay with Balb/c splenic B cells, this compound yielded an EC50 below 100 nM.

For `C[C@H](Nc1ccnc2scnc12)c1cc2cccc(C(F)(F)F)c2c(=O)n1-c1ccccc1` [III-36, (S)-2-phenyl-3-(1-(thiazolo[5,4-b]pyridin-7-ylamino)ethyl)-8-(trifluoromethyl)isoquinolin-1(2H)-one], the IC50 on PI3Kα was in the range of 1 to 10 µM. The compound also registered an EC50 in the assay with Balb/c splenic B cells below 100 nM.

Turning to `C[C@H](Nc1ncnc2scnc12)c1cc2scc(C(F)(F)F)c2c(=O)n1-c1ccccc1` [III-39], the IC50 on PI3Kα fell in the range of 1 to 10 µM. The compound also returned an EC50 with Balb/c splenic B cells below 100 nM.

As to `C[C@H](Nc1nc(N)ncc1C#N)c1cc2cccc(C(F)(F)F)c2c(=O)n1-c1ccccc1` [III-44], on PI3Kα, the IC50 was in the range of 1 to 10 µM. The EC50 in the assay with Balb/c splenic B cells is below 100 nM.

`C[C@H](Nc1nc(N)ncc1C#N)c1cc2cccc(C(F)(F)F)c2c(=O)n1-c1cccc(F)c1` [III-45]: the IC50 on PI3Kα was 1 to 10 µM. For the same compound, the EC50 with Balb/c splenic B cells is below 100 nM.

`C[C@H](Nc1ncnc(N)c1C#N)c1cc2cccc(C(F)(F)F)c2c(=O)n1-c1cccc(F)c1` [III-49]: the 50% inhibitory concentration (IC50) at PI3Kα was 1 to 10 µM. Moreover, the EC50 in the assay with Balb/c splenic B cells was below 100 nM.
